Laboratory results: publication PMC5071857, “A unique peptide deformylase platform to rationally design and challenge novel active compounds” (Scientific Reports, 2016)
Like-named read-outs stand apart in the source and are kept apart here.

Tests used:
SaPDF [1] = molecular target: T1, SaPDF (Streptococcus agalactiae serotype III, UniProt Q8E378, S2A); experiment: biochemical; settings: for Ki: SaPDF KI, no pre-incubation, assay initiated by addition of enzyme, 40 nM SaPDF, 37 °C; for SaPDF KI/KI*app: enhancement potency (slow tight-binding)
T1 construct: the recombinant protein contains all residues of the 204 amino acids mature protein; made in house; host or cells: E. coli Rosetta 2(DE3)pLysS
T1 sequence (Q8E378 whole entry S2A): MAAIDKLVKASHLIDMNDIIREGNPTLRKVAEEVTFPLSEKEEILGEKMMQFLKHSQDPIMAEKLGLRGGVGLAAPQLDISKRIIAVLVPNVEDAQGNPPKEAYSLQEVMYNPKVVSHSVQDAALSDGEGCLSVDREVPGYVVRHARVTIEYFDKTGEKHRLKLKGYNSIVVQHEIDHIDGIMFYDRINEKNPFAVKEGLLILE
Protocol: (§1) Enzymatic activity was measured by a spectrophotometric assay where peptide deformylase activity is coupled to that of formate dehydrogenase. The formate released by the deformylation reaction is used by FDH to convert NAD in NADH, the production of which being measured over time at 340 nm and controlled temperature (37 °C). The 200 μL reaction mixture contained 50 mM HEPES-NaOH pH7.5, 12 mM NAD^+, 4.5 U/mL FDH, 1 mM NiCl2 and PDF enzyme (either 40 nM SaPDF or 10 nM EcPDF or 100 nM AtPDF1B) previously diluted in presence of 0.1 mg/mL BSA. The reaction was started by addition of 1–6 mM Fo-Met-Ala-Ser. Kinetics parameters (kcat, Km) were derived from iterative non-linear least square fits using the Michaelis-menten equation based on the experimental data (Sigma-Plot, Kinetics module).
(§2) 1/KI*app is the slope of the v0/vi curve in function of compound concentration, where v0 and vi are the initial reaction rates in absence and presence of compound, respectively.
(§3) Determination of KI values was performed with a slightly modified protocol: reaction was started by addition of enzyme instead of Fo-Met-Ala-Ser, the latter being directly added to the mixture containing increasing concentrations of each compound. No pre-incubation of enzyme in presence of compound was done. 1/KI is the slope of the v0/vi curve in function of compound concentration, where v0 and vi are the initial reaction rates in absence and presence of compound respectively.

EcPDF = molecular target: T2, EcPDF (Escherichia coli, UniProt P0A6K3); experiment: PDF inhibition, formate dehydrogenase-coupled spectrophotometric assay (EcPDF); assay type: biochemical; settings: for Ki: 10 nM EcPDF; for EcPDF KI/KI*app: enhancement potency (slow tight-binding)
T2 construct: made in house
T2 sequence (P0A6K3 whole entry): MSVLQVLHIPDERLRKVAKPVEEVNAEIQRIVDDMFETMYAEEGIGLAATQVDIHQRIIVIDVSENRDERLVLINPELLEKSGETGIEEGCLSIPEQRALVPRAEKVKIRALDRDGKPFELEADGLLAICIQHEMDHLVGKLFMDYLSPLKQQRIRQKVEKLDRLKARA
Protocol: as §1, with “The” for “Enzymatic activity was measured by a spectrophotometric assay where peptide deformylase activity is coupled to that of formate dehydrogenase. The”
as §2, §3

AtPDF1B [2] = molecular target: T3, AtPDF1B (Arabidopsis thaliana, UniProt Q9FUZ2); experiment: PDF inhibition, formate dehydrogenase-coupled spectrophotometric assay (AtPDF1B); assay type: biochemical; settings: for IC50 / Ki: 100 nM AtPDF1B; for IC50: 2 mM Fo-Met-Ala-Ser, 10 min pre-incubation at 37 °C; for Ki: PDFI pre-incubated with enzyme 10 min at 37 °C, started by 2 mM Fo-Met-Ala-Ser, read-out: AtPDF1B KI*app; for AtPDF1B KI/KI*app: enhancement potency (slow tight-binding)
T3 construct: made in house
T3 sequence (Q9FUZ2 83-273): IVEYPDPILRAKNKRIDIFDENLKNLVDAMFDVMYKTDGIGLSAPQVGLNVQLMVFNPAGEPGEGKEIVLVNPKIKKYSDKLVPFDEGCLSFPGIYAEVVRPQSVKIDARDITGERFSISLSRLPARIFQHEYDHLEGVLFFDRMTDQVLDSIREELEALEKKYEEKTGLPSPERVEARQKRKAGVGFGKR
Protocol: as §1, §2, §3

E. coli AG100 = experiment: MIC by microdilution, E. coli AG100; assay type: cell-based; settings: 18 h at 37 °C, average of three assays; for MIC: Escherichia coli, AG100, without PMBN; for MIC AG100: with PMBN at 1/5 of its MIC
Excerpt: (§4) Two E. coli strains, one B. subtilis strain, one S. aureus strain, one E. faecalis strain, one S. agalactiae strain and three Enterobacter aerogenes strains previously described were used. Briefly, AG100 was an E. coli wild type strain and AG100A its acrAB^- derivative. EA289 was a Kan^s derivative of an E. aerogenes multi-drug resistant (MDR) clinical isolate overexpressing AcrAB-TolC efflux pumps, and EA294 and EA298 its acrAB^- and tolC^- derivatives respectively. Strains were routinely grown at 37 °C on Luria-Bertani (LB) agar or in Mueller-Hinton II broth (MH), supplemented with kanamycine (50 μg.mL^−1) for AG100A, EA294 and EA298.
(§5) MIC values of antibiotics were determined by the microdilution method in liquid MH media in microplates in the absence or presence of chemosensitizers/modulators (e.g. PMBN, PAβN), as previously described. Permeabilization, blocking of efflux pumps, and isolates with different levels of porin or efflux expression were used to assess the involvement of the membrane barrier in antibiotic activity.
(§6) Susceptibilities were determined in 96-wells microplates with an inoculum of 2 × 10^5 cfu in 200 μL of MH broth containing two-fold serial dilutions of each antibiotics or compounds. Molecules were tested alone or in combination with other molecules in equimolar ratio. MICs were realized in the absence and in the presence of a membrane permeabilizer, the polymyxine B nonapeptide (PMBN) used at 51.2 mg/L (1/5 or 1/10 of its direct MIC previously determined). Actinonin and ciprofloxacin were used as internal antibiotic reference. […] Each test was systematically performed in triplicate. The average of three independent assays is presented in μg/mL in the respective tables.

[3] = system: E. coli AG100A (AcrAB- derivative); experiment: MIC by microdilution, E. coli AG100A; assay type: cell-based; settings: for MIC: Escherichia coli, 18 h, read-out: MIC AG100A; for MIC AG100A: with PMBN at 1/5 of its MIC, 18 h at 37 °C, average of three assays
Excerpt: as §4, §5, §6

S. aureus SA113 = experiment: MIC, S. aureus SA113; assay type: cell-based; settings: Staphylococcus aureus
Excerpt: as §4, §5, §6

E. faecalis EFA 103.214 = experiment: MIC, E. faecalis EFA 103.214; assay type: cell-based; settings: Enterococcus faecalis, EFA103.214, read-out: MIC E. faecalis EFA 103.214
Excerpt: as §4, §5, §6

SaPDF [4] = molecular target: T1, SaPDF; experiment: biochemical; settings: SaPDF KI*app, PDFI pre-incubated with enzyme 10 min at 37 °C, started by 2 mM Fo-Met-Ala-Ser; 40 nM SaPDF
AtPDF1B [5] = molecular target: T3, AtPDF1B; experiment: PDF inhibition, formate dehydrogenase-coupled spectrophotometric assay (AtPDF1B); assay type: biochemical; settings: no pre-incubation, assay initiated by addition of enzyme; 100 nM AtPDF1B; 37 °C
[6] = system: E. aerogenes Ea289, MDR strain; experiment: MIC by microdilution, E. aerogenes Ea289; assay type: cell-based, Enterobacter aerogenes; settings: for MIC Ea289: +PMBN at 1/5 of its MIC, average of three assays; for MIC: Klebsiella aerogenes, 18 h, read-out: MIC Ea289
Excerpt: as §4, §5, §6

[7] = system: E. aerogenes Ea294, Ea289 derivative AcrAB-; experiment: MIC by microdilution, E. aerogenes Ea294; assay type: cell-based, Enterobacter aerogenes; settings: for MIC Ea294: +PMBN at 1/5 of its MIC, average of three assays; for MIC: Klebsiella aerogenes, 18 h, read-out: MIC Ea294
Excerpt: as §4, §5, §6

[8] = system: E. aerogenes Ea298, Ea289 derivative tolC-; experiment: MIC by microdilution, E. aerogenes Ea298; assay type: cell-based, Enterobacter aerogenes; settings: for MIC Ea298: +PMBN at 1/5 of its MIC, average of three assays; for MIC: Klebsiella aerogenes, 18 h, read-out: MIC Ea298
Excerpt: as §4, §5, §6

[9] = EcPDF KI*app, PDFI pre-incubated with enzyme 10 min at 37 °C, started by 2 mM Fo-Met-Ala-Ser
[10] = EcPDF KI, no pre-incubation, assay initiated by addition of enzyme, 37 °C

Structure (SMILES)	IC50 (SaPDF [1]) [µM]	Ki (SaPDF [1]) [µM]	SaPDF KI/KI*app (SaPDF [1])	IC50 (EcPDF) [µM]	Ki (EcPDF; [9]) [µM]	Ki (EcPDF; [10]) [µM]	EcPDF KI/KI*app (EcPDF)	IC50 (AtPDF1B [2]) [µM]	Ki (AtPDF1B [2]) [µM]	AtPDF1B KI/KI*app (AtPDF1B [2])	MIC (E. coli AG100) [mg/L]	MIC AG100 (E. coli AG100) [mg/L]	MIC [3] [mg/L]	MIC AG100A [3] [mg/L]	MIC (S. aureus SA113) [mg/L]	MIC (E. faecalis EFA 103.214) [mg/L]	Ki (SaPDF [4]) [µM]	Ki (AtPDF1B [5]) [µM]	MIC Ea289 [6] [mg/L]	MIC [6] [mg/L]	other results
O=C(Cn1cc(Cc2ccccc2)c2cc(Br)ccc21)NO [SMP289]	0.36 ± 0.021	0.909 ± 0.064	1	0.48 ± 0.03	0.625 ± 0.075	0.769 ± 0.03	1	0.703 ± 0.047	1.43	1	> 64	8	> 64	4	4	16	0.714 ± 0.072	1 ± 0.078	–	–	–
O=C(Cc1c[nH]c2ccc(Br)cc12)NO [AB47]	0.063 ± 0.006	0.062 ± 0.003	1	0.037 ± 0.005	0.039 ± 0.002	0.047 ± 0.002	1	0.36 ± 0.031	0.4 ± 0.035	1	> 64	64	64	32	–	–	0.073 ± 0.005	0.455 ± 0.089	–	–	–
CCCC[C@H](CC(=O)NO)c1nc(Cc2coc3ccccc23)no1 [AT015]	0.02 ± 0.003	0.166 ± 0.012	1	0.017 ± 0.002	0.01 ± 0.002	0.035 ± 0.005	3	0.3 ± 0.012	1.1	–	> 64	16	32	2	> 64	> 64	0.122 ± 0.013	–	128	> 128	MIC Ea294 [7]: 16 mg/L; MIC [7]: > 128 mg/L; MIC Ea298 [8]: 8 mg/L; MIC [8]: 128 mg/L
CCCCC(CC(=O)NO)c1nc(Cc2ccc(C(=O)OC)cc2)no1 (stereo not shown) [AT018]	0.02 ± 0.001	0.038 ± 0.006	2	0.02 ± 0.002	0.012 ± 0.001	0.049 ± 0.003	4	0.65 ± 0.02	0.833 ± 0.01	1	> 64	64	> 64	16	–	–	0.018 ± 0.001	1.11 ± 0.1	–	–	–
CCCCC[C@H](CC(=O)NO)C(=O)N[C@H](C(=O)N1CCC[C@H]1CO)C(C)C [Actinonin, actinonin, reference compound]	0.003 ± 0.0009	0.064 ± 0.005	–	–	–	–	–	0.0075 ± 0.0018	0.0035 ± 0.0003	–	128	4	1	0.25	–	–	0.001 ± 0.0001	0.082 ± 0.01	32	> 64	MIC Ea294 [7]: 4 mg/L; MIC [7]: 64 mg/L; MIC Ea298 [8]: 1 mg/L; MIC [8]: 32 mg/L
